Consider 16 compounds from PubChem BioAssay AID248 (DTP/NCI, 2004).

SMILES strings stand for the structures. Inconclusive results and toxic doses are left out. Square brackets hold non-standard residues; d marks the D form. Peptide text beside a SMILES is read from it. ξ: configuration not given here. ξI = CCC(C)C(N)C(=O)O

The assay relates to L1210 leukemia ip in BDF1 mice, survival T/C. Briefly: NCI In Vivo Anticancer Drug Screen. Data for tumor model L1210 Leukemia (intraperitoneal) in B6D2F1 (BDF1) mice. Conditions: endpoint: mean survival time, higher = longer survival. The method, boiled down:
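Mice bearing the transplanted tumor received compound or vehicle. Survival of the treated group was divided by that of the vehicle-treated control group to give the ratio.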

Where [1] appears, read: dose: 100.0 mg/kg/injection, schedule: Q01DX009 (ip), vehicle: Klucel (hydroxypropylcellulose) (HPC).
Setting [2] is: dose: 200.0 mg/kg/injection, schedule: Q01DX009 (ip), vehicle: Klucel (hydroxypropylcellulose) (HPC).
The mark [3] stands for this setting: dose: 400.0 mg/kg/injection, schedule: Q01DX009 (ip), vehicle: Klucel (hydroxypropylcellulose) (HPC).
Where [4] appears, read: dose: 100.0 mg/kg/injection, schedule: Q04DX003 (ip), vehicle: saline with Tween-80.
Where [5] appears, read: dose: 200.0 mg/kg/injection, schedule: Q04DX003 (ip), vehicle: saline with Tween-80.
Setting [6] is: dose: 100.0 mg/kg/injection, schedule: Q01DX001 (ip), vehicle: saline.
Setting [7] is: dose: 100.0 mg/kg/injection, schedule: Q04DX003 (ip), vehicle: Klucel (hydroxypropylcellulose) (HPC).
Where [8] appears, read: dose: 200.0 mg/kg/injection, schedule: Q04DX003 (ip), vehicle: Klucel (hydroxypropylcellulose) (HPC).

In the case of `O=S(=O)(C=C(N1CCCCC1)N1CCCCC1)Cc1ccccc1`, the T/C reads like this: (dose: 6.25 mg/kg/injection, schedule: Q01DX009 (ip), vehicle: saline) 113 % of control; (dose: 12.5 mg/kg/injection, schedule: Q01DX001 (ip), vehicle: saline) 100 % of control; (dose: 12.5 mg/kg/injection, schedule: Q01DX009 (ip), vehicle: saline) 106 % of control; (dose: 12.5 mg/kg/injection, schedule: Q04DX003 (ip), vehicle: saline) 94 % of control; (dose: 25.0 mg/kg/injection, schedule: Q01DX001 (ip), vehicle: saline) 100 % of control; (dose: 25.0 mg/kg/injection, schedule: Q01DX009 (ip), vehicle: saline) 103 % of control. For the same compound, the T/C (dose: 25.0 mg/kg/injection, schedule: Q04DX003 (ip), vehicle: saline) is 98 % of control; the T/C (dose: 35.0 mg/kg/injection, schedule: Q01DX009 (ip), vehicle: acetone) is 101 % of control; the T/C (dose: 50.0 mg/kg/injection, schedule: Q01DX001 (ip), vehicle: saline) was 106 % of control.
For `NNc1ccnc2c1cnn2C1OC(CO)C(O)C1O` (configuration not stated), the T/C (dose: 50.0 mg/kg/injection, schedule: Q01DX005 (ip), vehicle: other) was 105 % of control.
Turning to `Cc1ccc(NC(=O)c2ccccc2)cc1[As]=[As]c1cc(NC(=O)c2ccccc2)ccc1C` (configuration not stated), the T/C (dose: 1.0 mg/kg/injection, schedule: Q01DX015 (ip), vehicle: carboxymethylcellulose (CMC)) was 90 % of control; the T/C (dose: 2.0 mg/kg/injection, schedule: Q01DX015 (ip), vehicle: carboxymethylcellulose (CMC)) was 95 % of control; the T/C (dose: 4.0 mg/kg/injection, schedule: Q01DX015 (ip), vehicle: carboxymethylcellulose (CMC)) was 101 % of control.
With `NC(=O)c1ccccc1N=NN(CCF)CCF`, the T/C (dose: 6.25 mg/kg/injection, schedule: Q01DX009 (ip), vehicle: Klucel (hydroxypropylcellulose) (HPC)) was 120 % of control; the T/C (dose: 6.25 mg/kg/injection, schedule: Q04DX003 (ip), vehicle: Klucel (hydroxypropylcellulose) (HPC)) is 112 % of control; the T/C (dose: 12.0 mg/kg/injection, schedule: Q04DX003 (ip), vehicle: Klucel (hydroxypropylcellulose) (HPC)) is 153 % of control; the T/C (dose: 12.5 mg/kg/injection, schedule: Q01DX001 (ip), vehicle: Klucel (hydroxypropylcellulose) (HPC)) is 106 % of control; the T/C (dose: 12.5 mg/kg/injection, schedule: Q04DX003 (ip), vehicle: Klucel (hydroxypropylcellulose) (HPC)) was 156 % of control; the T/C (dose: 25.0 mg/kg/injection, schedule: Q01DX001 (ip), vehicle: Klucel (hydroxypropylcellulose) (HPC)) was 113 % of control. The T/C (dose: 25.0 mg/kg/injection, schedule: Q04DX003 (ip), vehicle: Klucel (hydroxypropylcellulose) (HPC)) was 104 % of control.
For `C=CCP(c1ccccc1)c1ccccc1`, the T/C (dose: 100.0 mg/kg/injection, schedule: Q04DX002 (ip), vehicle: saline) was 98 % of control and the T/C (dose: 200.0 mg/kg/injection, schedule: Q04DX002 (ip), vehicle: saline) was 91 % of control.
For `CC(=O)Oc1c(OC(C)=O)c(-c2c(C)cc(C)c(Br)c2C)c(OC(C)=O)c(OC(C)=O)c1-c1c(C)cc(C)c(Br)c1C`, the T/C by setting is: under setting [1], 103 % of control; under setting [2], 97 % of control; under setting [3], 103 % of control.
For `c1ccc2c(c1)C1CCC2c2ccccc21`, the T/C by setting is: (dose: 100.0 mg/kg/injection, schedule: Q01DX009 (ip), vehicle: saline with Tween-80) 106 % of control; under setting [4], 95 % of control; (dose: 200.0 mg/kg/injection, schedule: Q01DX009 (ip), vehicle: saline with Tween-80) 102 % of control; under setting [5], 98 % of control; (dose: 400.0 mg/kg/injection, schedule: Q01DX009 (ip), vehicle: saline with Tween-80) 97 % of control; (dose: 400.0 mg/kg/injection, schedule: Q04DX003 (ip), vehicle: saline with Tween-80) 92 % of control.
Turning to `CCCCC(=O)N/N=C/c1ccccc1OCC`, the T/C under setting [6] is 102 % of control; the T/C (dose: 200.0 mg/kg/injection, schedule: Q01DX001 (ip), vehicle: saline) was 107 % of control; the T/C (dose: 400.0 mg/kg/injection, schedule: Q01DX001 (ip), vehicle: saline) is 93 % of control.
In the case of `CC(C)CCCC(C)C1CCC2C3C(=O)C=C4CC(O)CCC4(C)C3CCC12C` (configuration not stated), the T/C by setting is: (dose: 100.0 mg/kg/injection, schedule: Q01DX009 (sc), vehicle: steriod suspending solution) 106 % of control; (dose: 100.0 mg/kg/injection, schedule: Q04DX003 (sc), vehicle: steriod suspending solution) 100 % of control; (dose: 200.0 mg/kg/injection, schedule: Q01DX009 (sc), vehicle: steriod suspending solution) 96 % of control; (dose: 200.0 mg/kg/injection, schedule: Q04DX003 (sc), vehicle: steriod suspending solution) 115 % of control; (dose: 400.0 mg/kg/injection, schedule: Q01DX009 (sc), vehicle: steriod suspending solution) 98 % of control; (dose: 400.0 mg/kg/injection, schedule: Q04DX003 (sc), vehicle: steriod suspending solution) 107 % of control.
`CC(=O)c1cc(N)ccc1SC#N`: the T/C is, setting by setting: (dose: 5.0 mg/kg/injection, schedule: Q01DX009 (ip), vehicle: saline with Tween-80) 102 % of control; (dose: 5.0 mg/kg/injection, schedule: Q04DX003 (ip), vehicle: saline with Tween-80) 101 % of control; (dose: 10.0 mg/kg/injection, schedule: Q01DX009 (ip), vehicle: saline with Tween-80) 96 % of control; (dose: 10.0 mg/kg/injection, schedule: Q04DX003 (ip), vehicle: saline with Tween-80) 101 % of control; (dose: 20.0 mg/kg/injection, schedule: Q01DX009 (ip), vehicle: saline with Tween-80) 100 % of control; (dose: 20.0 mg/kg/injection, schedule: Q04DX003 (ip), vehicle: saline with Tween-80) 103 % of control.
For `CCC(C)C(NC(=O)CN)C(=O)O` (configuration not stated) (H-Gly-[ξI]-OH), the T/C is 97 % of control (dose: 100.0 mg/kg/injection, schedule: Q04DX002 (ip), vehicle: saline with Tween-80); 98 % of control (dose: 100.0 mg/kg/injection, schedule: Q04DX003 (ip), vehicle: saline); 102 % of control (dose: 200.0 mg/kg/injection, schedule: Q04DX002 (ip), vehicle: saline with Tween-80); 98 % of control (dose: 200.0 mg/kg/injection, schedule: Q04DX003 (ip), vehicle: saline); 97 % of control (dose: 400.0 mg/kg/injection, schedule: Q04DX002 (ip), vehicle: saline with Tween-80); 91 % of control (dose: 400.0 mg/kg/injection, schedule: Q04DX003 (ip), vehicle: saline).
Consider `CCN(C(C)=O)c1ccc(S(=O)(=O)Cl)cc1`, for which the T/C under setting [4] is 97 % of control and the T/C under setting [5] was 88 % of control.
For `COc1ccc(-c2c(CC(=O)O)c3cc(OC)ccc3n2Cc2ccc(Cl)cc2)cc1`, the T/C reads like this: (dose: 65.0 mg/kg/injection, schedule: Q01DX Z (ip), vehicle: carboxymethylcellulose (CMC)) 94 % of control; (dose: 125.0 mg/kg/injection, schedule: Q01DX Z (ip), vehicle: carboxymethylcellulose (CMC)) 98 % of control; (dose: 250.0 mg/kg/injection, schedule: Q01DX Z (ip), vehicle: carboxymethylcellulose (CMC)) 107 % of control; (dose: 500.0 mg/kg/injection, schedule: Q01DX Z (ip), vehicle: carboxymethylcellulose (CMC)) 94 % of control; (dose: 750.0 mg/kg/injection, schedule: Q01DX Z (ip), vehicle: carboxymethylcellulose (CMC)) 90 % of control; (dose: 875.0 mg/kg/injection, schedule: Q01DX Z (ip), vehicle: carboxymethylcellulose (CMC)) 91 % of control.
Consider `ClC1CC2CCC1(Cl)C2` (configuration not stated), for which the T/C by setting is: under setting [1], 97 % of control; under setting [7], 96 % of control; under setting [2], 92 % of control; under setting [8], 100 % of control; under setting [3], 93 % of control; (dose: 400.0 mg/kg/injection, schedule: Q04DX003 (ip), vehicle: Klucel (hydroxypropylcellulose) (HPC)) 96 % of control.
As for `O=S(=O)(NS(=O)(=O)c1ccc(Cl)cc1)c1ccc(Cl)cc1`, the T/C is, setting by setting: (dose: 50.0 mg/kg/injection, schedule: Q01DX009 (ip), vehicle: Klucel (hydroxypropylcellulose) (HPC)) 93 % of control; under setting [1], 96 % of control; under setting [7], 88 % of control; under setting [2], 104 % of control; under setting [8], 87 % of control.
`Nc1cnccc1NCCN1CCN(c2ccccc2)CC1`: the T/C under setting [6] is 98 % of control.
